# Data taken from patent publication US10604509B2, “Nrf2 regulators” (GlaxoSmithKline Intellectual Property Development Limited, priority 2015, dated 2020).
# pEC50: −log10 of the molar value. Where a name gives a salt, the structure may show the parent alone.
# Tested on: NQO1 specific enzyme activity in BEAS-2B cells
# Assay: BEAS-2B NQO1 MTT assay
# Assay type: cell-based
# Conditions: Homo sapiens, BEAS-2B, 48 h, BEAS-2B cells, 48 hours with compound, MTT readout; read-out: EC50 of NQO1 specific activity induction
# How it was run: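 NQO1 specific activity, an NRF2 activation marker, read kinetically as absorbance change at 570 nm for 30 min after MTT cocktail addition to crude lysates of BEAS-2B cells exposed 48 h to compound. Three-parameter fit of Delta OD/min against log concentration gives EC50; lysate portion used for Cell Titer Glo.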
row,SMILES,pEC50
1,"Cc1ccc(C(CC(=O)O)c2ccc3c(nnn3C)c2C)cc1Cn1ccnc1CN1CCCC1 (stereo not shown) [Example 153, 3-(1,4-Dimethyl-1H-benzo[d][1,2,3]triazol-5-yl)-3-(4-methyl-3-((2-(pyrrolidin-1-ylmethyl)-1H-imidazol-1-yl)methyl)phenyl)propanoic Acid, Formic Acid Salt]",5.00 to 6.00
2,"CCn1nnc2c(F)c([C@@H](CC(=O)O)c3ccc(C)c(CN4Cc5ccccc5OC(C)(C)C4)c3)ccc21 [Example 64, (S)-3-(3-((2,2-Dimethyl-2,3-dihydrobenzo[f][1,4]oxazepin-4(5H)-yl)methyl)-4-methylphenyl)-3-(1-ethyl-4-fluoro-1H-benzo[d][1,2,3]triazol-5-yl)propanoic Acid]",7.00 to 8.00
3,"COCC1CN(Cc2cc(C(CC(=O)O)c3ccc4c(nnn4C)c3C)ccc2C)Cc2ccccc2O1 (stereo not shown) [Example 74, 3-(1,4-Dimethyl-1H-benzo[d][1,2,3]triazol-5-yl)-3-(3-((2-(methoxymethyl)-2,3-dihydrobenzo[f][1,4]oxazepin-4(5H)-yl)methyl)-4-methylphenyl)propanoic acid, formic acid salt]",6.00 to 7.00
4,"Cc1ccc([C@@H](c2ccc3c(nnn3C)c2C)C(C)(C)C(=O)O)cc1Cn1ccnc1CC1CCCCCC1 [Example 235, (S)-3-(3-((2-(Cycloheptylmethyl)-1H-imidazol-1-yl)methyl)-4-methylphenyl)-3-(1,4-dimethyl-1H-benzo[d][1,2,3]triazol-5-yl)-2,2-dimethylpropanoic Acid]",> 9.00
5,"CC[C@@H]1CN(Cc2cc(C(c3ccc4c(nnn4C)c3C)C(C)(C)C(=O)O)ccc2C)Cc2c(F)cccc2O1 (stereo partly drawn) [Example 31, 3-(1,4-Dimethyl-1H-benzo[d][1,2,3]triazol-5-yl)-3-(3-(((R)-2-ethyl-6-fluoro-2,3-dihydrobenzo[f][1,4]oxazepin-4(5H)-yl)methyl)-4-methylphenyl)-2,2-dimethylpropanoic Acid, Formic Acid Salt]",> 9.00
6,"CC[C@@H]1CN(Cc2cc([C@@H](c3ccc4c(nnn4C)c3C)C(C)(C)C(=O)O)ccc2C)Cc2ncccc2O1 [Example 218, (S)-3-(1,4-Dimethyl-1H-benzo[d][1,2,3]triazol-5-yl)-3-(3-(((R)-2-ethyl-2,3-dihydropyrido[2,3-f][1,4]oxazepin-4(5H)-yl)methyl)-4-methylphenyl)-2,2-dimethylpropanoic Acid, Trifluoroacetate]",8.00 to 9.00
7,"CCC1CN(Cc2cc(C(c3ccc4c(nnn4C)c3C)C(C)(C)C(=O)O)ccc2C)CCC(C2CC2)O1 (stereo not shown) [Example 246, 3-(3-((7-Cyclopropyl-2-ethyl-1,4-oxazepan-4-yl)methyl)-4-methylphenyl)-3-(1,4-dimethyl-1H-benzo[d][1,2,3]triazol-5-yl)-2,2-dimethylpropanoic Acid]",6.00 to 7.00
8,"CCn1nnc2c(Cl)c([C@@H](CC(=O)O)c3ccc(C)c(CN4Cc5ccccc5OC(C)(C)C4)c3)ccc21 [Example 54, (S)-3-(4-Chloro-1-ethyl-1H-benzo[d][1,2,3]triazol-5-yl)-3-(3-((2,2-dimethyl-2,3-dihydrobenzo[f][1,4]oxazepin-4(5H)-yl)methyl)-4-methylphenyl)propanoic acid, hydrochloride]",7.00 to 8.00
9,"Cc1ccc(C(c2ccc3c(nnn3C)c2C)C(C)(C)C(=O)O)cc1CN1CCOc2ccccc2C1 (stereo not shown) [Example 44, 3-(3-((2,3-Dihydrobenzo[f][1,4]oxazepin-4(5H)-yl)methyl)-4-methylphenyl)-3-(1,4-dimethyl-1H-benzo[d][1,2,3]triazol-5-yl)-2,2-dimethylpropanoic Acid, Formic Acid Salt]",7.00 to 8.00
10,"CC[C@@H]1CN(Cc2cc([C@H](c3ccc4c(nnn4C)c3C)[C@H](C)C(=O)O)ccc2C)Cc2ccccc2O1 [Example 39, (2S,3R)-3-(1,4-Dimethyl-1H-benzo[d][1,2,3]triazol-5-yl)-3-(3-(((R)-2-ethyl-2,3-dihydrobenzo[f][1,4]oxazepin-4(5H)-yl)methyl)-4-methylphenyl)-2-methylpropanoic Acid]",7.00 to 8.00
